“Also recorded” adds a separate entry of the source. Read-outs that look alike come from different tables or passages of the source.
Columns and labels:
[1] = target: T1, recombinant human Aβ42 peptide (Homo sapiens, UniProt P05067); experiment: Ion mobility mass spectrometry (IMS MS) anti-Aβ42 oligomer activity / binding study; format: biochemical; set-up: key to Presence of Aβ42 Pentamer / Presence of Aβ42 Hexamer / Presence of Aβ42 Decamer / Presence of Aβ42 Dimer / Presence of Aβ42 Trimer / Presence of Aβ42 Tetramer: Y = yes, presence of oligomer species; N = no presence of oligomer species
T1 construct: recombinant human Aβ42 peptide; purchased BioLegend 843801
T1 sequence (P05067 672-713 limits assumed): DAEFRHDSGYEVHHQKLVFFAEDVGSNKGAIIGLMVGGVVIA
Description: The conditions used for mass spectrometry, using a Waters Synapt G2-S, were as follows: positive polarity in sensitivity mode, capillary=2.5 kV, nebulizer=2 mbar, source temperature=80° C., desolvation temperature=60° C., sample cone setting=35 V, source offset setting=60 V, and mass range=500 to 4000 m/z. These conditions were maintained throughout the study to ensure consistency of the data and to avoid influencing the detection of oligomers due to preferential ionization conditions.
Samples were directly infused into the mass spectrometer at a flow rate of 10 μL/min using a Protea PM-1000 Syringe Pump and Hamilton 1 mL Syringe. The data acquisition of the amyloid peptide was performed using a Waters Synapt G2-S quadrupole time of flight mass spectrometer (Q-TOF MS) with traveling wave ion mobility (Waters Corp., Milford, MA). The data were acquired using the systems sensitivity mode to allow for the detection of the less abundant oligomers. Samples were infused at room temperature. The IMS MS studies were conducted at Protea, Inc. (Morgantown, WV).
1 mg of recombinant human Aβ42 peptide from BioLegend (99% purity, cat #843801) was reconstituted in 200 μL of Fisher Optima LC/MS grade water (cat #W6-1) and vortexed vigorously for 2 minutes to solubilize the peptide creating a 5 mg/mL solution. Samples were then diluted to a final concentration of 22 pmol/μL prior to incubation. The sample mixtures were then incubated at room temperature for 0, 4 and 24 hours. After the acquisition of incubated samples was completed, the raw data were analyzed using the Waters MassLynx v2.4 suite with DriftScover v2.7 to visualize drift times for the peptide.
Aβ42 species characterization using IMS MS was performed by direct infusion at 22 pmol/μL in water. The peptide was prepared in water to maintain the native state conformation of the peptide and ion mobility data acquisition was performed to detect and characterize the conformational changes of the native state monomer and any oligomers that may have formed during the incubation.
The data acquisition for Aβ42 peptide was performed using a Waters Synapt G2-S quadrupole time of flight mass spectrometer (Q-TOF MS) with traveling wave ion mobility (Waters Corp., Milford, MA). The data were acquired using the systems sensitivity mode to allow for the detection of the less abundant oligomers. Samples were infused at room temperature as above.
1 mg of 3-SPA was reconstituted in 1 mL of Fisher Optima LC/MS grade water (cat #W6-1) and vortexed vigorously for 2 minutes until completely dissolved. The sample was then diluted to create […], and 22,000 pmol/μL solutions to perform a 100-fold, and 1,000-fold molar excess for the binding experiments with Aβ42 peptide.
1 mg of recombinant human Aβ42 peptide was reconstituted in 200 μL of Fisher Optima LC/MS grade water and vortexed vigorously to solubilize to a 5 mg/mL solution. Samples were then diluted to their final concentrations prior to incubation. The sample mixtures were incubated at room temperature for 0, 4 and 24 hours, followed by analysis as described above.
To address the high conformational flexibility of Aβ42 and to characterize its interaction with 3-SPA, we used ion mobility mass spectrometry (IMS), with a quadrupole time of flight mass spectrometer (Q-TOF MS) with traveling wave ion mobility. Resulting effect of modulation of Aβ conformational space is the prevention of oligomer formation. We have found not only concentration dependency but also time-dependency of this anti-Aβ42 oligomeric effect of 3-SPA as indicated in FIG. 3 and FIG. 4. 100- vs 1,000-fold molar excess of 3-SPA over Aβ42 results in a different sub-species profile of inhibition of Aβ42 oligomer formation. The activity is also compared with the same excess dependency of tramiprosate.

[2] = Oral and iv pharmacokinetics of 3-SPA in male SD rats; format: in vivo, Sprague-Dawley rats
Description: The oral and iv pharmacokinetics of 3-SPA was evaluated in male Sprague-Dawley fasted rats at a dose of 30 mg/kg and 10 mg/kg respectively (n=3 per groups). Animals were housed in a standard facility, with water and food was provided ad libitum to the experiment. 3-SPA was dissolved in saline, was administered orally by gavage and intravenously as a bolus. Serial blood samples (approximately 1.0 mL each) were collected from each animal at 0.25, 0.5, 1, 2, 4, 8 and 24 hours after dosing into tubes containing K2EDTA and processed for plasma by centrifugation. Plasma samples were stored at −80° C. until bioanalyses.
A separate group of animals was dosed orally at 30 mg/kg and terminal brain, CSF and plasma samples were collected at 1, 2, 6, and 24 hr (3 animals for each time point) for bioanalyses of 3-SPA in brain and CSF, and to estimate brain penetration relative to plasma concentrations. The in-life study was performed at Agilux Laboratories (Worcester, MA) following quality standards in line with Good Laboratory Practice. Bioanalyses of rat plasma, CSF and brain was preformed using LC-MS/MS at Nextcea. Prior to processing rat brains for bioanalysis, the brains were perfused to remove pooled blood. Pharmacokinetic data analyses were conducted using Winnonlin Professional v5.0.1 (Pharsight, Mountain View, CA).
The plasma concentration of a single dose of 3-SPA, dissolved in saline as a clear solution, administered orally and intravenously to rats at a dose level of 30 mg/kg and 10 mg/kg, respectively, are shown in FIG. 9. Brain, CSF and corresponding plasma levels after a single oral dose of dose of 30 mg/kg of 3-SPA at 1, 2, 6, and 24 hr are shown in FIG. 10. Mean PK curves were used for calculation of pharmacokinetic parameters.

[3] = 100:1 excess ratio compound:protein
[4] = 1000:1 excess ratio compound:protein

Structure (SMILES): O=C(O)CCS(=O)(=O)O [3-SPA, 3-sulfopropanoic acid]
- Presence of Aβ42 Decamer [1, 3]: N
- Presence of Aβ42 Dimer [1, 3]: Y
- Presence of Aβ42 Hexamer [1, 3]: Y
- Presence of Aβ42 Pentamer [1, 3]: Y
- Presence of Aβ42 Tetramer [1, 3]: Y
- Presence of Aβ42 Trimer [1, 3]: Y
- Presence of Aβ42 Decamer [1, 4]: N
- Presence of Aβ42 Dimer [1, 4]: N
- Presence of Aβ42 Hexamer [1, 4]: N
- Presence of Aβ42 Pentamer [1, 4]: Y
- Presence of Aβ42 Tetramer [1, 4]: N
- Presence of Aβ42 Trimer [1, 4]: N
- Inhibition of formation of Aβ42 oligomers (in words) ([1]; 4 hr incubation, ratio 1:1000): inhibits the formation of oligomers with the exception of dimers, trimers and pentamers; also recorded: Detection of Aβ42 dimers, trimers and pentamers
- Inhibition of formation of Aβ42 oligomers (in words) ([1]; 24 hours incubation, 1,000-fold excess): Near complete prevention of formation of Aβ42 oligomers except for pentamers; also recorded: the only oligomeric species not inhibited were pentamers of Aβ42; also recorded: Only pentamers were detected
- Tmax ([2]; Sprague-Dawley, rat, iv 10 mg/kg, plasma, read-out: Tmax): 4.8 min
- Cl_obs ([2]; iv 10 mg/kg): 45 mL/min/kg
- Vss_obs ([2]; iv 10 mg/kg): 12.9 L/kg
- Vz_obs ([2]; iv 10 mg/kg): 43.6 L/kg
- AUC 0-inf_obs ([2]; iv 10 mg/kg, plasma): 3638 ng·h/mL
- AUC 0-t ([2]; iv 10 mg/kg, plasma): 3407 ng·h/mL
- C0 ([2]; iv 10 mg/kg, plasma): 13599 ng/mL
- Cmax ([2]; iv 10 mg/kg, plasma): 7484 ng/mL
- t½ ([2]; iv 10 mg/kg, plasma): 659.4 min
- Oral Bioavailability ([2]; oral 30 mg/kg vs iv 10 mg/kg): ~100%
- AUC 0-inf_obs ([2]; oral 30 mg/kg, plasma): 19061 ng·h/mL
- AUC 0-t ([2]; oral 30 mg/kg, plasma): 18894 ng·h/mL
- Cmax ([2]; oral 30 mg/kg, plasma): 8943 ng/mL
- Lambda_z ([2]; oral 30 mg/kg, plasma): 0.16 h⁻¹
- Tmax ([2]; oral 30 mg/kg, plasma): 30 min
- t½ ([2]; oral 30 mg/kg, plasma): 264 min

From patent US12083082B2, “Methods for treating neurodegenerative disorders” (Alzheon, Inc., priority 2018, dated 2024)
